Where “and” joins values, the source holds several entries; their conditions need not be identical. Equal entries are not always repeated.
Columns and labels:
BMP-2 = assay: real-time PCR, BMP-2 gene expression in hADSCs in HA-coated or non-coated wells; format: cell-based, human; settings: relative to Non-HA group day 1 = 1, simvastatin 1 μM, HA 1%
Experimental: Human adipose-derived stem cells (hADSCs) were cultured in wells coated with hyaluronic acid (HA) and without hyaluronic acid (non-HA), and treated with or without 1 μM of simvastatin (SIM) for 1 to 5 days. The present invention was therefore divided into four experimental groups: (1) No hyaluronic acid (Non-HA) group: human adipose-derived stem cells were cultured in wells not coated with hyaluronic acid and not treated with simvastatin (1 μM); (2) No hyaluronic acid plus simvastatin (Non-HA+Sim) group: human adipose-derived stem cells were cultured in wells not coated with hyaluronic acid but treated with simvastatin (1 μM); (3) Hyaluronic acid (HA) group: human adipose-derived stem cells were cultured in wells coated with hyaluronic acid but not treated with simvastatin (1 μM); and (4) Hyaluronic acid plus simvastatin (HA+Sim) group: human adipose-derived stem cells were cultured in wells coated with hyaluronic acid and treated with simvastatin (1 μM).
Cells were harvested on designated days and analyzed for the expression of BMP-2 and chondrogenic genes using real-time PCR. Total RNA of these cells was extracted by following the manufacturer's instructions and using TRIzol reagent (Gibco BRL, Rockville, Md.). In short, a reaction volume of 20 μl was taken which contained 0.5 to 1 μg of total RNA, and then RNA was reverse-transcribed into cDNA by using the SuperScript First-Strand Synthesis System (Invitrogen). Real-time PCR reactions were performed and monitored by using iQTM SYBR Green® supermix (Bio-Rad Laboratories Inc, Hercules, Calif.) and a quantitative real-time PCR detection system (Bio-Rad Laboratories Inc, Hercules, Calif.). […] The expression level of each of the target genes, as previously described, was calculated as 2-ΔΔCt. For each gene of interest, four readings were performed for each of the experimental samples, each experiment was repeated for at least three times. […]

aggrecan = assay: real-time PCR, chondrogenic gene aggrecan in hADSCs in HA-coated or non-coated wells; format: cell-based, human; settings: 1 μM simvastatin, with or without 1% HA coating, 1 to 5 days
Experimental: (§1) Human adipose-derived stem cells (hADSCs) were cultured in wells coated with hyaluronic acid (HA) and without hyaluronic acid (non-HA), and treated with or without 1 μM of simvastatin (SIM) for 1 to 5 days. […]
(§2) Cells were harvested on designated days and analyzed for the expression of BMP-2 and chondrogenic genes using real-time PCR. […] Real-time PCR reactions were performed and monitored by using iQTM SYBR Green® supermix (Bio-Rad Laboratories Inc, Hercules, Calif.) and a quantitative real-time PCR detection system (Bio-Rad Laboratories Inc, Hercules, Calif.). […] The expression level of each of the target genes, as previously described, was calculated as 2-ΔΔCt. For each gene of interest, four readings were performed for each of the experimental samples, each experiment was repeated for at least three times. […]

Col II = assay: real-time PCR, chondrogenic gene Col II in hADSCs in HA-coated or non-coated wells; format: cell-based, human; settings: 1 μM simvastatin, with or without 1% HA coating, 1 to 5 days
Experimental: as §1, §2

[1] = test system: human adipose-derived stem cells (hADSCs); assay: sGAG formation (DMMB analysis) in hADSCs cultured in wells coated with or without hyaluronic acid; format: cell-based; settings: day 7, standardized with DNA
Experimental: Sulfated glycosaminoglycan (sGAG) is a major extracellular matrix of articular cartilage. In order to test whether simvastatin can promote the expression of sGAG in human adipose-derived stem cells (hADSCs) and its optimal concentration, the present invention first prepared hyaluronic acid (HA) coated wells by coating hyaluronic acid dissolved in 1 ml of phosphate buffer (PBS, 1% w/w) on a 24-well plate, standing at 37° C. for 48 hours, then washed with PBS two times. Human adipose-derived stem cells were seeded in wells containing 500 μl of basal medium at a density of 1×10^5 cells per well, wherein the basal medium contains Dulbecco's modified Eagle's medium (DMEM), and was additionally supplemented with 5% fetal bovine serum (FBS), 1% nonessential amino acids and 100 U/ml of penicillin/streptomycin (Gibco-BRL, Grand Island, N.Y.). During the culturing period, simvastatin at different concentrations (0.1 to 1 μM) was added to the well plate, and the medium was replaced with fresh one every two days. On day 7 after the cultivation started, cells were collected for dimethylmethylene blue (DMMB) analysis with Blyscan sulfated glycosaminoglycan reagent (Biocolor, Antrim, UK), and for standardization of sulfated glycosaminoglycan (sGAG) formation with DNA.

Sox-9 = assay: real-time PCR, chondrogenic gene Sox-9 in hADSCs in HA-coated or non-coated wells; format: cell-based, human; settings: 1 μM simvastatin, with or without 1% HA coating, 1 to 5 days
Experimental: as §1, §2

osteocalcin = assay: real-time PCR, osteocalcin gene expression in hADSCs in HA-coated or non-coated wells; format: cell-based, human; settings: day 1 to day 5; relative to Non-HA group day 1 = 1; simvastatin 1 μM
Experimental: as §1, §2

CCC(C)(C)C(=O)O[C@H]1C[C@@H](C)C=C2C=C[C@H](C)[C@H](CC[C@@H]3C[C@@H](O)CC(=O)O3)[C@H]21 [simvastatin]
expression of BMP-2 gene (BMP-2; day 1): 1.2 fold | expression of BMP-2 gene (BMP-2; day 3): 0.8 fold | expression of BMP-2 gene (BMP-2; day 5, listed as Non-HA+Sim): 1.1 fold and 2.1 fold | expression of chondrogenic gene aggrecan (aggrecan): failed to effectively enhance | expression of chondrogenic gene Col II (Col II): failed to effectively enhance | expression level of sGAG ([1]; absence of hyaluronic acid (Non-HA), simvastatin 0.1 μM): 0.5 µg/µg | expression level of sGAG ([1]; absence of hyaluronic acid (Non-HA), simvastatin 0.5 μM): 0.5 µg/µg | expression level of sGAG ([1]; absence of hyaluronic acid (Non-HA), simvastatin 1 μM): 0.7 µg/µg | expression level of sGAG ([1]; presence of 1% hyaluronic acid, simvastatin 0.1 μM): 1.3 µg/µg | expression level of sGAG ([1]; presence of 1% hyaluronic acid, simvastatin 0.5 μM): 2.5 µg/µg | expression level of sGAG ([1]; presence of 1% hyaluronic acid, simvastatin 1 μM): 2.8 µg/µg | expression of chondrogenic gene Sox-9 (Sox-9): failed to effectively enhance | expression of osteocalcin gene (osteocalcin): significantly increased

— patent US20180169136A1, “USE OF PHARMACEUTICAL COMPOSITION IN PREPARATION OF DRUG FOR PROMOTING CHONDROCYTE GENERATION” (KAOHSIUNG MEDICAL UNIVERSITY, priority 2015, published 2018)
